Source: PMC3429506, “Screening for Novel LRRK2 Inhibitors Using a High-Throughput TR-FRET Cellular Assay for LRRK2 Ser935 Phosphorylation” (PLoS ONE, 2012)

Each compound was assayed against T1, LRRK2 A2016T/G2019S (Homo sapiens, UniProt Q5S007, A2016T/G2019S) (assay: Immunoprecipitation/Western analysis of LRRK2 phosphorylation in T-REx HEK293 cells expressing inhibitor desensitizing mutant). Details: 20 µM, Figure 6 IRM.
T1 construct: expressed in transfected cells
Type: cell-based
Procedure: (§1) Immunoblot analysis: BacMam LRRK2-GFP transduced U-2 OS or SH-SY5Y cells (10^7 cells) were left untreated or treated with 3 µM LRRK2-IN-I for 90 min. For lysate preparation, the cells were washed once with ice-cold PBS and lysed by addition of ice-cold lysis buffer (20 mM Tris-HCl, pH 7.4, 1% NP-40, 5 mM EDTA, 5 mM NaF, 150 mM NaCl, and 1∶100 of protease and phosphatase inhibitor cocktails). The lysate was cleared of debris by centrifugation. Equal amount of total protein was loaded onto each lane for SDS-PAGE (3–8% Tris Acetate). The proteins were transferred onto nitrocellulose membrane using the iBLOT® dry blotting system (Life Technologies) according to manufacturer’s protocol. The membranes were blocked and incubated with a primary antibody against LRRK2 (Cell Signaling Technologies), followed by incubation with alkaline phosphatase-conjugated secondary antibody (WesternBreeze® chromogenic Kit, Life Technologies). The blot was developed by using the chromogenic BCIP/NBT substrate (WesternBreeze® chromogenic Kit, Life Technologies). […] Two days post induction, cells were treated for 90 minutes in the presence of 20 µM of compound or DMSO vehicle control. Cells were rapidly lysed in ice cold lysis buffer 50 mM Tris/HCl, pH 7.5, 1 mM EGTA, 1 mM EDTA, […] 1 mM sodium orthovanadate, 10 mM sodium beta-glycerolphosphate, 50 mM NaF, 5 mM sodium pyrophosphate, 0.27 M sucrose, 1 mM benzamidine and 2 mM phenylmethanesulphonylfluoride (PMSF) and one tablet each complete protease inhibitor and PhosSTOP phosphatase inhibitor (Roche) and was supplemented with 1% (v/v) Triton X-100. GFP-LRRK2 was immunoprecipitated with GFP nanotrap beads (ChromoTek). Immunecomplexes were washed twice with lysis buffer supplemented with 300 mM NaCl and once with Buffer A (50 mM Tris/HCl, pH 7.5, 50 mM NaCl, 0.1 mM EGTA and 0.1% (v/v) 2-mercaptoethanol, and 0.27 M sucrose).

T1 sequence (Q5S007 whole entry A2016T/G2019S): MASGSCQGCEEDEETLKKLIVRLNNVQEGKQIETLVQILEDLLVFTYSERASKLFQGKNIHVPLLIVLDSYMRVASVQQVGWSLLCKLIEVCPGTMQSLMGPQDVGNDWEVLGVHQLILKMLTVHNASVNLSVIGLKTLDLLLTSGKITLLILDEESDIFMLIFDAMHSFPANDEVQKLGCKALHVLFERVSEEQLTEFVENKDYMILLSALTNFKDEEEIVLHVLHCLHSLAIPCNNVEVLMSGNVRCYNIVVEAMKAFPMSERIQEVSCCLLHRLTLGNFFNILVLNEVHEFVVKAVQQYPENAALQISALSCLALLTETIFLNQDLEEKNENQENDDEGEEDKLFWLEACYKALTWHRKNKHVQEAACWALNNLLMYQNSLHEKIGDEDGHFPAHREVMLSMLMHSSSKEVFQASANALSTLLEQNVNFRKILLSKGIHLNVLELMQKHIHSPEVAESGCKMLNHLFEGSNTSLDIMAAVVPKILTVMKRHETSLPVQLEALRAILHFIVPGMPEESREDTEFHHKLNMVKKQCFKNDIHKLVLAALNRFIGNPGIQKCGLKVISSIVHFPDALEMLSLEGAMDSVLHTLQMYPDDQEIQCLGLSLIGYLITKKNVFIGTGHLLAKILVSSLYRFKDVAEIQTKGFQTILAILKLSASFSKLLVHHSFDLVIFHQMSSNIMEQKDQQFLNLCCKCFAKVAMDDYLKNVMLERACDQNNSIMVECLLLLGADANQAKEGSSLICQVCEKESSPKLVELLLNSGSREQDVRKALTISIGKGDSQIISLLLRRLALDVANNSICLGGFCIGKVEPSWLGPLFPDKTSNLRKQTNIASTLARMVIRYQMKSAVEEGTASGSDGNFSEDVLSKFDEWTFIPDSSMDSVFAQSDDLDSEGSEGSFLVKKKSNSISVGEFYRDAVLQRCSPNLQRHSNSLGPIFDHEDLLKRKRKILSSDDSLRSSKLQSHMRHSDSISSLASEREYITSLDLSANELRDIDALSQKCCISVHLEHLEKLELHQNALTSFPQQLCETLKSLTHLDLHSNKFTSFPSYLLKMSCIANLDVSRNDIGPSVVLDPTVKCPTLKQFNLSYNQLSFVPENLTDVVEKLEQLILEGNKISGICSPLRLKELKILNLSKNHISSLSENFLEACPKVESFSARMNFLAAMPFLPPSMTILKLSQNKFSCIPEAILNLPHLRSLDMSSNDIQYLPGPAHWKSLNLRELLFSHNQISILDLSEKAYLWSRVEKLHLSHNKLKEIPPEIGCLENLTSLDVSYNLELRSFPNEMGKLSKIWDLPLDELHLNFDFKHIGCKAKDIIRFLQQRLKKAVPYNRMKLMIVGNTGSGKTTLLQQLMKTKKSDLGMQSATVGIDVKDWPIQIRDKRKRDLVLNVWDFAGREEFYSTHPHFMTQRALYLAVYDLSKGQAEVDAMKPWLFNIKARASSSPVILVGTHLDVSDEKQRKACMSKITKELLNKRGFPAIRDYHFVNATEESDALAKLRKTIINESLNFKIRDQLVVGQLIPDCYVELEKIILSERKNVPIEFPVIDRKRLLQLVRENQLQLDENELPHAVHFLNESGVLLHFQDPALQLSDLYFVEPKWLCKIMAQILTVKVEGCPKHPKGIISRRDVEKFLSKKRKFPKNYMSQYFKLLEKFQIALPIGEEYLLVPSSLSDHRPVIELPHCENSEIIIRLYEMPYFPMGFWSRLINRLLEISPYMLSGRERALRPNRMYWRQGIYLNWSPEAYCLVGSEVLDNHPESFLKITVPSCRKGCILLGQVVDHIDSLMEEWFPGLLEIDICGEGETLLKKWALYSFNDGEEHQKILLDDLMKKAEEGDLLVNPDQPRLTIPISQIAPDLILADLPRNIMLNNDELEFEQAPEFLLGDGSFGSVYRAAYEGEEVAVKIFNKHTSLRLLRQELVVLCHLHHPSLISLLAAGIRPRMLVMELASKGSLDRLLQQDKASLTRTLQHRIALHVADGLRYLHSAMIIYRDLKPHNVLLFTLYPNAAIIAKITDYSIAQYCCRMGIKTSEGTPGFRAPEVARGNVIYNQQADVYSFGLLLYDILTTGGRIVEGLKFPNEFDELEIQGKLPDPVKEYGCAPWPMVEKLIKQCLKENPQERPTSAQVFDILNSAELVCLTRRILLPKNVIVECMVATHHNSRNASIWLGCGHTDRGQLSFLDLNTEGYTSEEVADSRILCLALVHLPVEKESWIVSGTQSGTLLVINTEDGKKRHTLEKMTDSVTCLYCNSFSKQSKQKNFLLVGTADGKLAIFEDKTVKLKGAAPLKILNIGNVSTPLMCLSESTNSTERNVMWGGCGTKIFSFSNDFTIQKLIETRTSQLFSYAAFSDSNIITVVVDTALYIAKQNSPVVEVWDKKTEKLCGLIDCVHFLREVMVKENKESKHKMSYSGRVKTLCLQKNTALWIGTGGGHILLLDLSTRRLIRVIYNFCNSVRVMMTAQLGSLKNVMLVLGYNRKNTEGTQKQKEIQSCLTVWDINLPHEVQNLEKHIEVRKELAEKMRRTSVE

| Structure (SMILES) | effect of desensitizing mutation A2016T/G2019S on compound-induced dephosphorylation (IP-Western) |
| --- | --- |
| O=C(c1ccc(Nc2nccc(-c3cc4ccccc4s3)n2)cc1)N1CCC(N2CCCC2)CC1 [IKK 16] | rescued phosphorylation |
| O=C(NCCCNc1nc(Nc2cccc(NC(=O)N3CCCC3)c2)ncc1I)c1cccs1 [BX-795] | rescued phosphorylation |
| CC(C)(C)c1ccc(S(=O)(=O)/C=C/C#N)cc1 [Bay 11-7085] | did not appear to be changed |
| O=C1NC(=O)c2c1c1c3ccccc3n3c1c1c2c2ccccc2n1C1CCC3O1 [SB 218078] | did not appear to be changed |

Same assay, conditions: 293 cells, LRRK2 G2019S/A2016T

| Structure (SMILES) | LRRK2 phosphorylation remaining, % of untreated G2019S [%] |
| --- | --- |
| CC(C)(C)c1ccc(S(=O)(=O)/C=C/C#N)cc1 [Bay 11-7085] | 50 |

Each compound was assayed on SH-SY5Y cells expressing LRRK2-GFP G2019S (assay: not given). Details: not given.

| Structure (SMILES) | IC50 [µM] |
| --- | --- |
| CC(C)[C@H](CO)Nc1nc(Nc2cc(N)cc(Cl)c2)c2ncn(C(C)C)c2n1 [Aminopurvalanol A] | > 20 |
| O=C(c1ccc(Nc2nccc(-c3cc4ccccc4s3)n2)cc1)N1CCC(N2CCCC2)CC1 [IKK 16] | > 20 |
| [O-][S+](c1ccccc1)c1ccc2nnnn2n1 (centres unmarked) [Ro 106-9920] | 20 |
| O=C1C(Cl)=C(NCCN2CCOCC2)C(=O)c2ncccc21 [NSC 663284] | 2 |
| C[C@@H](N)[C@H]1CC[C@H](C(=O)Nc2ccncc2)CC1 [Y-27632] | > 20 |
| CC(C)(C)c1ccc(S(=O)(=O)/C=C/C#N)cc1 [Bay 11-7085] | > 20 |

Each compound was assayed on SH-SY5Y cells expressing LRRK2-GFP G2019S (assay: Cytotoxicity assay (resazurin-based cell viability)). Details: read-out: Cytotoxicity Assay IC50; same conditions as TR-FRET follow-up; one representative of two experiments.

| Structure (SMILES) | IC50 [µM] |
| --- | --- |
| O=C1NC(=O)c2c1c1c3ccccc3n3c1c1c2c2ccccc2n1C1CCC3O1 [SB 218078] | > 20 |

What follows are compounds tested against T2, GFP-LRRK2 G2019S (Homo sapiens, UniProt Q5S007, G2019S) (assay: Immunoprecipitation/Western analysis of LRRK2 phosphorylation at Ser910, Ser935, Ser955, Ser973 in HEK293 T-REx GFP-LRRK2 G2019S cells). Details: 20 µM, 90 min, HEK293 GFP-LRRK2 G2019S, Figure 6.
T2 construct: expressed in transfected cells
T2 sequence (Q5S007 whole entry G2019S): as the sequence (Q5S007 whole entry A2016T/G2019S) above, with T2016A counted along it
Type: cell-based
Procedure: as §1

| Structure (SMILES) | effect on phosphorylation of Ser910, Ser935, Ser955 and Ser973 (IP-Western) |
| --- | --- |
| O=C(c1ccc(Nc2nccc(-c3cc4ccccc4s3)n2)cc1)N1CCC(N2CCCC2)CC1 [IKK 16] | inhibited phosphorylation of Ser910, Ser935, Ser955 and Ser973 |
| O=C(NCCCNc1nc(Nc2cccc(NC(=O)N3CCCC3)c2)ncc1I)c1cccs1 [BX-795] | inhibited LRRK2 cellular phosphorylation |
| CC(C)(C)c1ccc(S(=O)(=O)/C=C/C#N)cc1 [Bay 11-7085] | moderately reduced phosphorylation of all four residues |
| O=C1NC(=O)c2c1c1c3ccccc3n3c1c1c2c2ccccc2n1C1CCC3O1 [SB 218078] | moderately reduced phosphorylation of all four residues |

Same assay, conditions: 293 cells, LRRK2 G2019S

| Structure (SMILES) | LRRK2 phosphorylation remaining, % of untreated G2019S [%] |
| --- | --- |
| CC(C)(C)c1ccc(S(=O)(=O)/C=C/C#N)cc1 [Bay 11-7085] | 50 |

Same assay, conditions: HEK293 cells

| Structure (SMILES) | suppression of LRRK2 phosphorylation on Ser935 |
| --- | --- |
| [O-][S+](c1ccccc1)c1ccc2nnnn2n1 (centres unmarked) [Ro 106-9920] | approximately 50% |

These compounds were tested against T3, LRRK2 G2019S (Homo sapiens, UniProt Q5S007, G2019S) (assay: TR-FRET cellular assay for LRRK2 Ser935 phosphorylation, SH-SY5Y cells, BacMam LRRK2-GFP G2019S (incl. Tocriscreen Mini library screen and follow-up)). Details: Tocriscreen Mini library screen, 20 µM, SH-SY5Y G2019S, relative to LRRK2-IN-1 control.
T3 sequence (Q5S007 whole entry G2019S): as the sequence (Q5S007 whole entry A2016T/G2019S) above, with T2016A counted along it
Type: cell-based
Set-up: This high-throughput assay utilizes cells expressing full-length human LRRK2 with a C-terminal GFP tag (LRRK2-GFP); host or cells: SH-SY5Y cells transduced with BacMam
Procedure: U-2 OS cells are maintained in growth medium (McCoy’s 5A supplemented with 10% dialyzed FBS (dFBS), 10 mM HEPES, 0.1 mM NEAA, 1 mM Sodium Pyruvate, and 100 U/mL Penicillin/100 µg/mL Streptomycin). HEK293T cells are maintained in DMEM with 10% dFBS, 10 mM HEPES, 0.1 mM NEAA and 100 U/mL Penicillin/100 µg/mL Streptomycin. SH-SY5Y cells are maintained in DMEM/F-12 medium supplemented with 10% dFBS and 100 U/mL Penicillin/100 µg/mL Streptomycin. […] GIBCO® human neural stem cells (hNSCs) were propagated as an adherent culture in StemPro® NSC SFM according to the manufacturer’s recommended protocol (Life Technologies). For BacMam transduction of U-2 OS and HEK293T, cells were harvested, mixed with various amounts of BacMam LRRK2-GFP reagent (v/v) and plated onto 6-well plates. […] Cells were assayed in 384-well format (∼20,000 cells/well) 48 hours post-transduction as above.
Transduced cells in the 384-well assay plate were incubated with indicated inhibitors (5X, 5 µL/well) for 60 to 90 minutes. During this time, 6 X lysis buffer (Life Technologies) was supplemented with 30 nM Tb-labeled anti-LRRK2 pSer935 antibody and both protease and phosphatase inhibitor cocktails (Sigma). The complete 6 X lysis buffer was added to each well (5 µL/well) and the plates were incubated at room temperature in the dark for 2 hours. […] A sigmoidal dose-response equation with varying slope was used to fit the data and generate IC50 values. Z′-factor values were calculated as: Z′-factor = 1 - [(3 × stdevno virus +3 × stdevmaxvirus)/(avgmaxvirus – avgno-virus)]. The IC50 values reported in Table 1 are the averaged numbers from three independent experiments.
40 nL of 10 mM Tocris library compounds in DMSO were dispensed into each well of the assay plate by the ECHO system. Equal volumes of DMSO were dispensed into the control wells. Cells were incubated with compounds for 90 to 120 min prior to cell lysis and detection as described above. The percent inhibition is calculated as: [(average emission ratios of DMSO control wells – average emission ratios of compound wells)/(average emission ratios of DMSO control wells – average emission ratios of LRRK2-IN-1 treated wells)] * 100. For the dose-response follow-up studies, fresh compound DMSO stock solutions were prepared from powder. […] Z′-factor value was calculated as: Z′-factor = 1 - [(3 × stdevLRRK2-IN-1+3 × stdevDMSO)/(avgDMSO – avgLRRK2-IN-1)]. The IC50 values reported in Table 2 are the averaged numbers from three independent experiments for both cellular and biochemical TR-FRET assays and one representative result of two independent experiments for the cytotoxicity assay.

| Structure (SMILES) | %Inhibition Initial screen [%] |
| --- | --- |
| CC(C)[C@H](CO)Nc1nc(Nc2cc(N)cc(Cl)c2)c2ncn(C(C)C)c2n1 [Aminopurvalanol A] | 56.2 |
| O=C(c1ccc(Nc2nccc(-c3cc4ccccc4s3)n2)cc1)N1CCC(N2CCCC2)CC1 [IKK 16] | 81.7 |
| [O-][S+](c1ccccc1)c1ccc2nnnn2n1 (centres unmarked) [Ro 106-9920] | 69.8 |
| O=C1C(Cl)=C(NCCN2CCOCC2)C(=O)c2ncccc21 [NSC 663284] | 59.1 |
| C[C@@H](N)[C@H]1CC[C@H](C(=O)Nc2ccncc2)CC1 [Y-27632] | 67.3 |
| CC(C)(C)c1ccc(S(=O)(=O)/C=C/C#N)cc1 [Bay 11-7085] | 97.5 |
| O=C1NC(=O)c2c1c1c3ccccc3n3c1c1c2c2ccccc2n1C1CCC3O1 [SB 218078] | 55.3 |

Same assay, conditions: dose-response follow-up, SH-SY5Y G2019S, 90 min

| Structure (SMILES) | Cellular TR-FRET Assay Max % Inhibition [%] |
| --- | --- |
| CC(C)[C@H](CO)Nc1nc(Nc2cc(N)cc(Cl)c2)c2ncn(C(C)C)c2n1 [Aminopurvalanol A] | 50 |
| O=C(c1ccc(Nc2nccc(-c3cc4ccccc4s3)n2)cc1)N1CCC(N2CCCC2)CC1 [IKK 16] | 82 |
| [O-][S+](c1ccccc1)c1ccc2nnnn2n1 (centres unmarked) [Ro 106-9920] | 76 |
| O=C1C(Cl)=C(NCCN2CCOCC2)C(=O)c2ncccc21 [NSC 663284] | 45 |
| C[C@@H](N)[C@H]1CC[C@H](C(=O)Nc2ccncc2)CC1 [Y-27632] | 69 |
| CC(C)(C)c1ccc(S(=O)(=O)/C=C/C#N)cc1 [Bay 11-7085] | 100 |
| O=C1NC(=O)c2c1c1c3ccccc3n3c1c1c2c2ccccc2n1C1CCC3O1 [SB 218078] | 54 |

Same assay, conditions: dose-response follow-up, SH-SY5Y G2019S, three independent experiments; read-out: Cellular TR-FRET Assay IC50 +/-SD

| Structure (SMILES) | IC50 [µM] |
| --- | --- |
| CC(C)[C@H](CO)Nc1nc(Nc2cc(N)cc(Cl)c2)c2ncn(C(C)C)c2n1 [Aminopurvalanol A] | 1.4 |
| O=C(c1ccc(Nc2nccc(-c3cc4ccccc4s3)n2)cc1)N1CCC(N2CCCC2)CC1 [IKK 16] | 1.3 |
| [O-][S+](c1ccccc1)c1ccc2nnnn2n1 (centres unmarked) [Ro 106-9920] | 7.6 |
| O=C1C(Cl)=C(NCCN2CCOCC2)C(=O)c2ncccc21 [NSC 663284] | 5.8 |
| CC(C)(C)c1ccc(S(=O)(=O)/C=C/C#N)cc1 [Bay 11-7085] | 5.3 |
| O=C1NC(=O)c2c1c1c3ccccc3n3c1c1c2c2ccccc2n1C1CCC3O1 [SB 218078] | 9.5 |

The compounds below were run against T3, LRRK2 G2019S (assay: In vitro biochemical LRRK2 TR-FRET activity assay). Details: LRRK2 G2019S, ATP 134 µM (Km,app), LRRKtide substrate, three independent experiments; read-out: Biochemical LRRK2 assay IC50 +/- SD.
Procedure: The Biochemical LRRK2 TR-FRET activity assay was performed according to the manufacture recommended assay protocol (Life Technologies). […] After incubation at room temperature for 1 hour, the kinase reactions were stopped by addition of 10 µL of 20 mM EDTA and 4 nM Tb-anti-pERM (pLRRKtide) antibody in TR-FRET dilution buffer (Life Technologies). After a 30 minute incubation at room temperature, TR-FRET measurements were obtained on a BMG PHERAstar plate reader using LanthaScreen® filters and settings. A 16 point, 2-fold dilution series of each compound was tested in triplicate at each concentration and assays were also performed in triplicate.

| Structure (SMILES) | IC50 [µM] |
| --- | --- |
| O=C(c1ccc(Nc2nccc(-c3cc4ccccc4s3)n2)cc1)N1CCC(N2CCCC2)CC1 [IKK 16] | 0.05 |
| [O-][S+](c1ccccc1)c1ccc2nnnn2n1 (centres unmarked) [Ro 106-9920] | > 100 |
| O=C1C(Cl)=C(NCCN2CCOCC2)C(=O)c2ncccc21 [NSC 663284] | 0.48 |
| CC(C)(C)c1ccc(S(=O)(=O)/C=C/C#N)cc1 [Bay 11-7085] | > 100 |

Same assay, conditions: result in words

| Structure (SMILES) | effect on LRRK2 activity in vitro |
| --- | --- |
| [O-][S+](c1ccccc1)c1ccc2nnnn2n1 (centres unmarked) [Ro 106-9920] | did not repress LRRK2 activity in vitro |
| CC(C)(C)c1ccc(S(=O)(=O)/C=C/C#N)cc1 [Bay 11-7085] | did not repress LRRK2 activity in vitro |
